Assay [1] has as its target T1, Recombinant G2019S-LRRK2 protein (Homo sapiens, UniProt Q5S007, G2019S).
T1 construct: purchased Life Technologies PV4881
Nature of the assay: LanthaScreen Kinase Activity Assay (TR-FRET), G2019S-LRRK2. It is filed as biochemical. Particulars: class symbols; 25 μM ATP, 400 nM LRRKtide, 2.9 nM kinase, 60 min at room temperature. The protocol: (§1) LRRK2 kinase activity was measured using a LanthaScreen™ Kinase Activity Assay from ThermoFisher Scientific. Recombinant wild type or G2019S-LRRK2 protein (Life Technologies, PR8604B or PV4881, respectively), was incubated with a fluorescein-labeled peptide substrate called LRRKtide that is based upon ezrin/radixin/moesin (ERM) (Life Technologies, PV4901) in the presence of ATP and serially diluted compound. After an incubation period of 1 hr, the phosphotransferase activity was stopped and a terbium-labelled anti-pERM antibody (Life Technologies, PV4899) was added to detect the phosphorylation of LRRKtide by measuring the time resolved-Forster resonant energy transfer (TR-FRET) signal from the terbium label on the antibody to the fluorescein tag on LRRKtide, expressed as the 520 nm/495 nm emission ratio. Compound-dependent inhibition of the TR-FRET signal was used to generate a concentration-response curve for IC50 determination.
(§2) The assay was carried out under the following protocol conditions: 1 mM compound in DMSO was serially diluted 1:3, 11 points in DMSO with a Biomek FX and 0.1 μL of the diluted compound was subsequently stamped into the assay plate (384-well format Lumitrac 200, Greiner, 781075) with an Echo Labcyte such that the final compound concentration in the assay was 10 μM to […]. Subsequently, 5 μL of 2× kinase solution (2.9 nM final concentration) was added to the assay plate in assay buffer composed of 50 mM Tris pH 8.5 (Sigma, T6791), 5 mM MgCl2 (Fluka, 63020), 1 mM EGTA (Sigma, E3889), 0.01% BRIJ-35 (Sigma, P1254) and 2 mM DTT. The reaction was started by addition of 2×ATP/LRRKtide solution in assay buffer such that the final concentration was 400 nM LRRKtide and 25 μM ATP. After 60 min incubation at room temperature, the reaction was stopped by addition of […] containing a final concentration of 2 nM anti-pERM antibody and 10 mM EDTA. After a 30 min incubation at RT, the TR-FRET signal was measured on a Wallac 2104 EnVision® multilabel reader at an excitation wavelength of 340 nm and reading emission at 520 nm and 495 nm. The ratio of the 520 nm and 495 nm emission was used to analyze the data.
(Time-resolved FRET reads energy transfer from a long-lived donor to a nearby acceptor.)

Assay [2] concerns the target T2, Recombinant wild type LRRK2 protein (Homo sapiens, UniProt Q5S007).
T2 construct: purchased Life Technologies PR8604B
Briefly: LanthaScreen Kinase Activity Assay (TR-FRET), wild type LRRK2. It is filed as biochemical. The note with it: 25 μM ATP, 400 nM LRRKtide, 2.9 nM kinase, 60 min at room temperature, read-out: LRRK2 WT IC50. The protocol: as §1, §2

[3] abbreviates: numeric bound instead of class symbol.

Where two headings read alike, the source gives them in different places. A value given as a limit tells only on which side of the number the result lay.

T1 sequence (Q5S007 whole entry G2019S): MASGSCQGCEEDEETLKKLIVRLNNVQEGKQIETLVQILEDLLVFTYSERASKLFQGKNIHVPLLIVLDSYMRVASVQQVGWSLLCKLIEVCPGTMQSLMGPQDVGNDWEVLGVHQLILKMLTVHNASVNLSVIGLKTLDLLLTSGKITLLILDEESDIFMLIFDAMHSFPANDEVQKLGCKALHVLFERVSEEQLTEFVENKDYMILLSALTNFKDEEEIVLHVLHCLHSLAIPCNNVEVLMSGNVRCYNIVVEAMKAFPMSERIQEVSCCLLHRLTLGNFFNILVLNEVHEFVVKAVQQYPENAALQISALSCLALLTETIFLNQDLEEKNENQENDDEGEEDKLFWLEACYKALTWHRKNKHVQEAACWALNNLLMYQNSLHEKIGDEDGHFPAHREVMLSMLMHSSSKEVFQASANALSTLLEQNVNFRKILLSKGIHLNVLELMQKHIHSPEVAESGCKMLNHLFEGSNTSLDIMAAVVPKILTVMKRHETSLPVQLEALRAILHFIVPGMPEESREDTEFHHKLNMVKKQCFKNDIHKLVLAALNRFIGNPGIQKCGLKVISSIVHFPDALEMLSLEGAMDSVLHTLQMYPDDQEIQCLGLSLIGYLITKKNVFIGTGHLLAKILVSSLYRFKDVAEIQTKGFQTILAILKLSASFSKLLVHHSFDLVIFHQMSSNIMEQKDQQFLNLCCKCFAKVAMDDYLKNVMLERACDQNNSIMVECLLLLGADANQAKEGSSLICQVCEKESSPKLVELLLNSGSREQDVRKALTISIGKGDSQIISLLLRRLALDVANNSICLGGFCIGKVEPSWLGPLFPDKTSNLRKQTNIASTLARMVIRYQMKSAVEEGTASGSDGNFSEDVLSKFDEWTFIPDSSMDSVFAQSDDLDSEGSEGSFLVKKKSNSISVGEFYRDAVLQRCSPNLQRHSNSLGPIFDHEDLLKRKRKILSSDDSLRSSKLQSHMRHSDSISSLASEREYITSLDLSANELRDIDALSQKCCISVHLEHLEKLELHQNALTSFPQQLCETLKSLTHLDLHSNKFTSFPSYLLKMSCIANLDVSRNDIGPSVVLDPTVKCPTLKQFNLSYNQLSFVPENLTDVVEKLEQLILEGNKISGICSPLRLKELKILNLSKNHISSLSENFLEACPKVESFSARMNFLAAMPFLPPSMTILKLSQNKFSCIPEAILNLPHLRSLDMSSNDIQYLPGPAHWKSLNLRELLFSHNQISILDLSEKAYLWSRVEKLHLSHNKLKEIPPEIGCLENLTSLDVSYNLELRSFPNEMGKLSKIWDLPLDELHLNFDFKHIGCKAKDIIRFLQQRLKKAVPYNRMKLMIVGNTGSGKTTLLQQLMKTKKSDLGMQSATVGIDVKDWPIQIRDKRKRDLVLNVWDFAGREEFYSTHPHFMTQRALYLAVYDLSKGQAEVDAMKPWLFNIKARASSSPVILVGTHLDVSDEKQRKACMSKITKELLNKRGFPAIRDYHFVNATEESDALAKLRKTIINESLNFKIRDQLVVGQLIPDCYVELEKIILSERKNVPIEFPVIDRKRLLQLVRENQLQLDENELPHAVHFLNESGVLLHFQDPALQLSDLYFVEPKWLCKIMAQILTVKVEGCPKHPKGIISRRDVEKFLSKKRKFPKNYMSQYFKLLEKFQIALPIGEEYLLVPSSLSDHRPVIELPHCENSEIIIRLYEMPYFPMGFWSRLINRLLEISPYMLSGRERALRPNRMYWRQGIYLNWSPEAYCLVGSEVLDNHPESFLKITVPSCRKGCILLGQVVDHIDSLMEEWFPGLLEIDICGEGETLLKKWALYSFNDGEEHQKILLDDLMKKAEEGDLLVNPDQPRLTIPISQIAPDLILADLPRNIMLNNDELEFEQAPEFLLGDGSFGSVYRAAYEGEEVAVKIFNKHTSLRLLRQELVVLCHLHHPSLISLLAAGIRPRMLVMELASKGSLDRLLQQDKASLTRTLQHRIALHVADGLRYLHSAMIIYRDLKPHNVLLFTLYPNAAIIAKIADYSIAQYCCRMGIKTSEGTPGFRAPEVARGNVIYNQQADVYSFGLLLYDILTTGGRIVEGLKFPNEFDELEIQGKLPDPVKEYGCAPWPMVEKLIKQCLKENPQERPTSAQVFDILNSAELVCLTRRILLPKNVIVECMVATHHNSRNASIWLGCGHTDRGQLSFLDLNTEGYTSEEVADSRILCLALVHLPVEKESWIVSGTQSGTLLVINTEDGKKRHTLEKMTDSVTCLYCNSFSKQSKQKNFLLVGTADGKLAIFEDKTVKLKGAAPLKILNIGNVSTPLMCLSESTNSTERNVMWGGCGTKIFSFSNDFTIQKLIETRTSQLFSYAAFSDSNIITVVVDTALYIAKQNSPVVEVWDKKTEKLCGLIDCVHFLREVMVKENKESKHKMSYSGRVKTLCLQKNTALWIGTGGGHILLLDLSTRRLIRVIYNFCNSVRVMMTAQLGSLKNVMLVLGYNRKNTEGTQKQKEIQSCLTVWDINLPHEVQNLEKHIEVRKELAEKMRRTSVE
T2 sequence (Q5S007 whole entry): as the sequence (Q5S007 whole entry G2019S) above, with S2019G counted along it

By IC50 is commonly meant the concentration that inhibits the measured activity by half. On to `Cn1ncc2c1CCC(C(=O)Nc1ccc3[nH]nc(-c4ccoc4)c3c1)C2` (single isomer, unassigned) [Example 161a], for which the 50% inhibitory concentration (IC50) in assay [1] and in assay [2] (class symbols) was at most 100 nM throughout.
Regarding `Cn1ncc2c1CCC(C(=O)Nc1ccc3[nH]nc(-c4ccoc4)c3c1)C2` (single isomer, unassigned) [Example 161b], the half-inhibitory concentration (IC50) in assay [1] is at most 100 nM; in assay [2] (class symbols), 100 to 1000 nM.
On to `Cn1cc2c(n1)CCC(C(=O)Nc1ccc3[nH]nc(-c4ccoc4)c3c1)C2` (single isomer, unassigned) [Example 161d], for which the half-maximal inhibitory concentration (IC50) in assay [1] is at most 100 nM; in assay [2] (class symbols), 100 to 1000 nM.
On the same counts, the results for `O=C(Nc1ccc2[nH]nc(-c3ccoc3)c2c1)C1CCc2nncn2C1` (single isomer, unassigned) [Example 162a] are at most 100 nM and at most 100 nM.
Turning to `O=C(Nc1ccc2[nH]nc(-c3ccoc3)c2c1)C1CCc2nncn2C1` (single isomer, unassigned) [Example 162b], the 50% inhibitory concentration (IC50) was at most 100 nM in assay [1] and 100 to 1000 nM in assay [2] (class symbols).
On the same counts, the results for `O=C(Nc1ccc2[nH]nc(-c3ccoc3)c2c1)C1CCc2cncn2C1` (single isomer, unassigned) [Example 173a] are at most 100 nM and 100 to 1000 nM.
The corresponding values for `O=C(Nc1ccc2[nH]nc(-c3ccoc3)c2c1)C1CCc2cncn2C1` (single isomer, unassigned) [Example 173b] are 1000 to 10000 nM and 1000 to 10000 nM.
On the same counts, the results for `Cc1cc2nn[nH]c2cc1C(=O)Nc1ccc2[nH]nc(-c3ccncc3)c2c1` [Example 1] are at most 100 nM and 100 to 1000 nM.
Take `Cc1cc2nn[nH]c2cc1C(=O)Nc1ccc2[nH]nc(-c3cccc(N4CCOCC4)c3)c2c1` [Example 2, 5-Methyl-N-(3-(3-morpholinophenyl)-1H-indazol-5-yl)-1H-benzo[d][1,2,3]triazole-6-carboxamide]: the concentration for half-maximal inhibition (IC50) in assay [1] and in assay [2] (class symbols) was at most 100 nM in each case.
For the molecule `Cc1cc2nn(C)nc2cc1C(=O)Nc1ccc2[nH]nc(C)c2c1` [Example 3, 2,6-Dimethyl-N-(3-methyl-1H-indazol-5-yl)-2H-benzo[d][1,2,3]triazole-5-carboxamide], the half-inhibitory concentration (IC50) in assay [1] and in assay [2] (class symbols) was 1000 to 10000 nM each time.
As for `Cc1n[nH]c2ccc(NC(=O)c3ccn4cnnc4c3)cc12` [Example 5, N-(3-Methyl-1H-indazol-5-yl)-[1,2,4]triazolo[4,3-a]pyridine-7-carboxamide], the IC50 in assay [1] and in assay [2] (class symbols) was 1000 to 10000 nM in each case.
On to `Cc1n[nH]c2ccc(NC(=O)c3ccc4nnc(C)n4c3)cc12` [Example 8, 3-Methyl-N-(3-methyl-1H-indazol-5-yl)-[1,2,4]triazolo[4,3-a]pyridine-6-carboxamide], for which the half-inhibitory concentration (IC50) in assay [1] and in assay [2] (class symbols) was 1000 to 10000 nM in each case.
As for `Cc1n[nH]c2ccc(NC(=O)c3ccc4nn[nH]c4c3)cc12` [Example 9, N-(3-Methyl-1H-indazol-5-yl)-1H-benzo[d][1,2,3]triazole-6-carboxamide], the half-inhibitory concentration (IC50) in assay [1] and in assay [2] (class symbols) was 1000 to 10000 nM each time.
On to `Cc1n[nH]c2ccc(NC(=O)c3cc4nn[nH]c4cc3C(F)(F)F)cc12` [Example 10, N-(3-Methyl-1H-indazol-5-yl)-6-(trifluoromethyl)-1H-benzo[d][1,2,3]triazole-5-carboxamide], for which the IC50 in assay [1] was 1000 to 10000 nM; in assay [2] (setting [3]), over 10000 nM.
For `Cc1cc2[nH]nnc2c(C)c1C(=O)Nc1ccc2[nH]nc(C)c2c1` [Example 11, 4,6-Dimethyl-N-(3-methyl-1H-indazol-5-yl)-1H-benzo[d][1,2,3]triazole-5-carboxamide], the IC50 lay in the range of 100 to 1000 nM in assay [1] and 1000 to 10000 nM in assay [2] (class symbols).
On the same counts, the results for `Cc1c(C(=O)Nc2ccc3[nH]nc(-c4ccncc4)c3c2)ccc2[nH]nnc12` [Example 12, 4-Methyl-N-(3-(pyridin-4-yl)-1H-indazol-5-yl)-1H-benzo[d][1,2,3]triazole-5-carboxamide] are at most 100 nM and 100 to 1000 nM.
The corresponding values for `Cc1cc(C(=O)Nc2ccc3[nH]nc(-c4ccncc4)c3c2)cc2nn[nH]c12` [Example 13, 7-Methyl-N-(3-(pyridin-4-yl)-1H-indazol-5-yl)-1H-benzo[d][1,2,3]triazole-5-carboxamide] are 100 to 1000 nM and 100 to 1000 nM.
On to `Cc1n[nH]c2ccc(NC(=O)c3ccc4[nH]nnc4c3C#N)cc12` [Example 14, 4-Cyano-N-(3-methyl-1H-indazol-5-yl)-1H-benzo[d][1,2,3]triazole-5-carboxamide], for which the results for the half-inhibitory concentration (IC50) in assay [1] and in assay [2] (setting [3]) were 1000 to 10000 nM and over 10000 nM, respectively.
With `Cc1cc2nn[nH]c2cc1C(=O)Nc1ccc2[nH]nc(Br)c2c1` [Example 15, N-(3-Bromo-1H-indazol-5-yl)-5-methyl-1H-benzo[d][1,2,3]triazole-6-carboxamide], the results for the IC50 in assay [1] and in assay [2] (class symbols) were at most 100 nM and 1000 to 10000 nM, respectively.
`Cc1cc2[nH]cnc2cc1C(=O)Nc1ccc2[nH]nc(Br)c2c1` [Example 18, N-(3-Bromo-1H-indazol-5-yl)-6-methyl-1H-benzo[d]imidazole-5-carboxamide]: the half-maximal inhibitory concentration (IC50) in assay [1] and in assay [2] (class symbols) was 100 to 1000 nM in each case.
With `Cc1cc2[nH]cnc2cc1C(=O)Nc1ccc2[nH]nc(-c3ccccc3)c2c1` [Example 19, 6-Methyl-N-(3-phenyl-1H-indazol-5-yl)-1H-benzo[d]imidazole-5-carboxamide], the 50% inhibitory concentration (IC50) is at most 100 nM in assay [1] and 100 to 1000 nM in assay [2] (class symbols).
Consider `Cc1cc2[nH]ccc2cc1C(=O)Nc1ccc2[nH]nc(-c3ccccc3)c2c1` [Example 20, 6-Methyl-N-(3-phenyl-1H-indazol-5-yl)-1H-indole-5-carboxamide], for which the IC50 in assay [1] was at most 100 nM; in assay [2] (class symbols) it was 100 to 1000 nM.
The corresponding values for `Cc1cc2[nH]ncc2cc1C(=O)Nc1ccc2[nH]nc(-c3ccccc3)c2c1` [Example 21, 6-Methyl-N-(3-phenyl-1H-indazol-5-yl)-1H-indazole-5-carboxamide] are at most 100 nM and at most 100 nM.
Regarding `Cc1cc2cc[nH]c2cc1C(=O)Nc1ccc2[nH]nc(-c3ccccc3)c2c1` [Example 22, 5-Methyl-N-(3-phenyl-1H-indazol-5-yl)-1H-indole-6-carboxamide], the figures for the half-maximal inhibitory concentration (IC50) in assay [1] and in assay [2] (class symbols) were 100 to 1000 nM and 1000 to 10000 nM, respectively.
The corresponding values for `Cc1cc2cn[nH]c2cc1C(=O)Nc1ccc2[nH]nc(-c3ccccc3)c2c1` [Example 23, 5-Methyl-N-(3-phenyl-1H-indazol-5-yl)-1H-indazole-6-carboxamide] are at most 100 nM and at most 100 nM.
The corresponding values for `O=C(Nc1ccc2[nH]nc(-c3ccccc3)c2c1)c1cc2[nH]ncc2cc1Br` [Example 24, 5-Bromo-N-(3-phenyl-1H-indazol-5-yl)-1H-indazole-6-carboxamide] are at most 100 nM and at most 100 nM.
Turning to `Cn1ncc2c(F)c(C(=O)Nc3ccc4[nH]nc(-c5ccoc5)c4c3)c(F)cc21` [Example 28, 4,6-Difluoro-N-(3-(furan-3-yl)-1H-indazol-5-yl)-1-methyl-1H-indazole-5-carboxamide], the IC50 in assay [1] and in assay [2] (class symbols) was at most 100 nM throughout.
`Cc1oncc1-c1n[nH]c2ccc(NC(=O)c3c(F)cc4c(cnn4C)c3F)cc12` [Example 29, 4,6-Difluoro-1-methyl-N-(3-(5-methylisoxazol-4-yl)-1H-indazol-5-yl)-1H-indazole-5-carboxamide]: the half-inhibitory concentration (IC50) was at most 100 nM in assay [1] and 100 to 1000 nM in assay [2] (class symbols).
Consider `Cc1nocc1-c1n[nH]c2ccc(NC(=O)c3c(F)cc4c(cnn4C)c3F)cc12` [Example 30, 4,6-Difluoro-1-methyl-N-(3-(3-methylisoxazol-4-yl)-1H-indazol-5-yl)-1H-indazole-5-carboxamide], for which the half-inhibitory concentration (IC50) in assay [1] was at most 100 nM; in assay [2] (class symbols), 100 to 1000 nM.
The corresponding values for `Cn1ncc2c(F)c(C(=O)Nc3ccc4[nH]nc(-c5cccnc5)c4c3)c(F)cc21` [Example 32, 4,6-Difluoro-1-methyl-N-(3-(pyridin-3-yl)-1H-indazol-5-yl)-1H-indazole-5-carboxamide] are at most 100 nM and at most 100 nM.
On to `Cn1ncc2c(F)c(C(=O)Nc3ccc4[nH]nc(-c5cncnc5)c4c3)c(F)cc21` [Example 34, 4,6-Difluoro-1-methyl-N-(3-(pyrimidin-5-yl)-1H-indazol-5-yl)-1H-indazole-5-carboxamide], for which the IC50 in assay [1] was at most 100 nM; in assay [2] (class symbols) it was 100 to 1000 nM.

The values are drawn from patent US20220162192A1 (ESCAPE Bio, Inc., priority 2019, published 2022).
